Molecular target: AMPK
Test: AMPK activation, enzyme-linked immunosorbent assay
Assay type: biochemical
Conditions: Table 13, compounds of Table 6
Summary of the method: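 Read-out: ELISA, used to detect compound-driven activation of AMPK.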

For O=C(Nc1ccc2oc(C(=O)N3CCC(Oc4ccc(C(F)(F)F)cc4)CC3)cc2c1)c1ccc(Oc2ccc(F)cc2)cc1 [Compound 6-24, 4-(4-fluorophenoxy)-N-(2-(4-(4-(trifluoromethyl)phenoxy)piperidine-1-carbonyl)benzofuran-5-yl)benzamide], the EC50 was < 100 nM.

COc1ccc(CN2CCC(NC(=O)c3cc4cc(C(=O)N5CCC(Oc6ccc(C(F)(F)F)cc6)CC5)ccc4o3)CC2)cc1 [Compound 6-25, N-(1-(4-methoxybenzyl)piperidin-4-yl)-5-(4-(4-(trifluoromethyl)phenoxy)piperidine-1-carbonyl) benzofuran-2-carboxamide] was tested, and the EC50 was < 100 nM.

O=C(Nc1ccc(Oc2ccc(F)cc2)nc1)c1cc2cc(C(=O)N3CCC(Oc4ccc(C(F)(F)F)cc4)CC3)ccc2o1 [Compound 6-26, N-(6-(4-fluorophenoxy)pyridin-3-yl)-5-(4-(4-(trifluoromethyl)phenoxy)piperidine-1-carbonyl) benzofuran-2-carboxamide] was tested, and the EC50 was < 100 nM.

N#Cc1ccc(CN2CCC(NC(=O)c3cc4cc(CN5CCC(Oc6ccc(C(F)(F)F)cc6)CC5)ccc4o3)CC2)cc1 [Compound 6-27, N-(1-(4-cyanobenzyl)piperidin-4-yl)-5-((4-(4-(trifluoromethyl)phenoxy)piperidin-1-yl)methyl) benzofuran-2-carboxamide] was tested, and the EC50 was < 100 nM.

With O=C(NC1CCN(Cc2cc(F)cc(F)c2)CC1)c1cc2cc(CN3CCC(Oc4ccc(C(F)(F)F)cc4)CC3)ccc2o1 [Compound 6-28, N-(1-(3,5-difluorobenzyl)piperidin-4-yl)-5-((4-(4-(trifluoromethyl)phenoxy)piperidin-1-yl)methyl) benzofuran-2-carboxamide] the EC50 was < 100 nM.

With O=C(Nc1ccc(Oc2ccc(F)cc2)nc1)c1cc2cc(CN3CCC(Oc4ccc(C(F)(F)F)cc4)CC3)ccc2o1 [Compound 6-29, N-(6-(4-fluorophenoxy)pyridin-3-yl)-5-((4-(4-(trifluoromethyl)phenoxy)piperidin-1-yl)methyl) benzofuran-2-carboxamide] the EC50 was < 100 nM.

In the case of COc1ccc(CN2CCC(C(=O)Nc3ccc4oc(C(=O)NC5CCN(Cc6ccc(C#N)cc6)CC5)cc4c3)CC2)cc1 [Compound 6-40, N-(2-(1-(4-cyanobenzyl)piperidin-4-ylcarbamoyl)benzofuran-5-yl)-1-(4-methoxybenzyl)piperidine-4-carboxamide], the EC50 is reported as 1000 to 10000 nM.

N#Cc1ccc(CN2CCC(NC(=O)c3cc4cc(NC(=O)C5CCN(Cc6cnn(-c7ccccn7)c6)CC5)ccc4o3)CC2)cc1 [Compound 6-41, N-(2-(1-(4-cyanobenzyl)piperidin-4-ylcarbamoyl)benzofuran-5-yl)-1-((1-(pyridin-2-yl)-1H-pyrazol-4-yl)methyl)piperidine-4-carboxamide] gave an EC50 of 1000 to 10000 nM.

For N#Cc1ccc(CN2CCC(NC(=O)c3cc4cc(NC(=O)C5CCN(Cc6cnn(-c7ccc(C#N)cc7)c6)CC5)ccc4o3)CC2)cc1 [Compound 6-42, N-(2-(1-(4-cyanobenzyl)piperidin-4-ylcarbamoyl)benzofuran-5-yl)-1-((1-(4-cyanophenyl)-1H-pyrazol-4-yl)methyl)piperidine-4-carboxamide], the EC50 was 1000 to 10000 nM.

Molecule N#Cc1ccc(CN2CCC(NC(=O)c3cc4cc(NC(=O)C5CCN(Cc6ccc(F)c(F)c6)CC5)ccc4o3)CC2)cc1 [Compound 6-43, N-(2-(1-(4-cyanobenzyl)piperidin-4-ylcarbamoyl)benzofuran-5-yl)-1-(3,4-difluorobenzyl)piperidine-4-carboxamide] has an EC50 of 100 to 1000 nM.

Work on N#Cc1ccc(CN2CCC(NC(=O)c3cc4cc(NC(=O)C5CCN(Cc6ccc(OC(F)(F)F)cc6)CC5)ccc4o3)CC2)cc1 [Compound 6-46, N-(2-(1-(4-cyanobenzyl)piperidin-4-ylcarbamoyl)benzofuran-5-yl)-1-(4-(trifluoromethoxy)benzyl) piperidine-4-carboxamide] yielded an EC50 of 100 to 1000 nM.

Work on N#Cc1ccc(CN2CCC(NC(=O)c3cc4cc(NC(=O)C5CCN(Cc6ccc(C#N)c(F)c6)CC5)ccc4o3)CC2)cc1 [Compound 6-48, 1-(4-cyano-3-fluorobenzyl)-N-(2-(1-(4-cyanobenzyl)piperidin-4-ylcarbamoyl)benzofuran-5-yl)piperidine-4-carboxamide] yielded an EC50 of 100 to 1000 nM.

For N#Cc1ccc(CN2CCC(NC(=O)c3cc4cc(NC(=O)C5CCN(Cc6ccc(C#N)cc6)CC5)ccc4o3)CC2)cc1 [Compound 6-49, l-(4-cyanobenzyl)-N-(2-(l-(4-cyanobenzyl)piperidin-4-ylcarbamoyl)benzofiiran-5-yl)piperidine-4-carbox amide], the EC50 was 100 to 1000 nM.

With N#Cc1ccc(CN2CCC(NC(=O)c3cc4cc(NC(=O)C5CCN(Cc6ccc(C(F)(F)F)cc6)CC5)ccc4o3)CC2)cc1 [Compound 6-50, N-(2-(1-(4-cyanobenzyl)piperidin-4-ylcarbamoyl)benzofuran-5-yl)-1-(4-(trifluoromethyl)benzyl) piperidine-4-carboxamide] the EC50 was 100 to 1000 nM.

In the case of N#Cc1ccc(CN2CCC(NC(=O)c3cc4cc(NC(=O)Cc5ccc(C(F)(F)F)cc5)ccc4o3)CC2)cc1 [Compound 6-54, N-(1-(4-cyanobenzyl)piperidin-4-yl)-5-(2-(4-(trifluoromethyl)phenyl)acetamido)benzofuran-2-carboxamide], the EC50 is reported as 100 to 1000 nM.

With Cc1nnsc1C(=O)Nc1ccc2oc(C(=O)NC3CCN(Cc4ccc(C#N)cc4)CC3)cc2c1 [Compound 6-56, N-(2-(1-(4-cyanobenzyl)piperidin-4-ylcarbamoyl)benzofuran-5-yl)-4-methyl-1,2,3-thiadiazole-5-carboxamide] the EC50 was 1000 to 10000 nM.

N#Cc1ccc(CN2CCC(NC(=O)c3cc4cc(NC(=O)c5ccc(C#N)cc5)ccc4o3)CC2)cc1 [Compound 6-57] gave an EC50 of 100 to 1000 nM.

With COc1ccc(-n2cc(C(=O)Nc3ccc4oc(C(=O)NC5CCN(Cc6ccc(C#N)cc6)CC5)cc4c3)cn2)cc1 [Compound 6-59, N-(2-(1-(4-cyanobenzyl)piperidin-4-ylcarbamoyl)benzofuran-5-yl)-1-(4-methoxyphenyl)-1H-pyrazole-4-carboxamide] the EC50 was 100 to 1000 nM.

N#Cc1ccc(CN2CCC(NC(=O)c3cc4cc(NC(=O)c5ccc(-c6nnc[nH]6)cc5)ccc4o3)CC2)cc1 [Compound 6-60, 5-(4-(4H-1,2,4-triazol-3-yl)benzamido)-N-(1-(4-cyanobenzyl)piperidin-4-yl)benzofuran-2-carboxamide] was tested, and the EC50 was 1000 to 10000 nM.

Work on Cc1cc(C(=O)Nc2ccc3oc(C(=O)NC4CCN(Cc5ccc(C#N)cc5)CC4)cc3c2)no1 [Compound 6-61, N-(2-(1-(4-cyanobenzyl)piperidin-4-ylcarbamoyl)benzofuran-5-yl)-5-methylisoxazole-3-carboxamide] yielded an EC50 of 100 to 1000 nM.

With N#Cc1ccc(CN2CCC(NC(=O)c3cc4cc(NC(=O)c5ccc(Oc6ccc(F)cc6)nc5)ccc4o3)CC2)cc1 [Compound 6-64, N-(2-(1-(4-cyanobenzyl)piperidin-4-ylcarbamoyl)benzofuran-5-yl)-6-(4-fluorophenoxy)nicotinamide] the EC50 was 100 to 1000 nM.

For N#Cc1ccc(CN2CCC(NC(=O)c3cc4cc(NC(=O)c5ccc(-n6cccn6)cc5)ccc4o3)CC2)cc1 [Compound 6-65, 5-(4-(1H-pyrazol-1-yl)benzamido)-N-(1-(4-cyanobenzyl)piperidin-4-yl)benzofuran-2-carboxamide], the EC50 was 100 to 1000 nM.

Molecule N#Cc1ccc(CN2CCC(NC(=O)c3cc4cc(NC(=O)c5cnn(-c6ccc(F)cc6)c5)ccc4o3)CC2)cc1 [Compound 6-66, N-(2-(1-(4-cyanobenzyl)piperidin-4-ylcarbamoyl)benzofuran-5-yl)-1-(4-fluorophenyl)-1H-pyrazole-4-carboxamide] has an EC50 of 100 to 1000 nM.

N#Cc1ccc(CC(=O)Nc2ccc3oc(C(=O)NC4CCN(Cc5ccc(C#N)cc5)CC4)cc3c2)cc1 [Compound 6-67, N-(1-(4-cyanobenzyl)piperidin-4-yl)-5-(2-(4-cyanophenyl)acetamido) benzofuran-2-carboxamide] was tested, and the EC50 was 1000 to 10000 nM.

With N#Cc1ccc(CN2CCC(NC(=O)c3cc4cc(NC(=O)c5ccc(N6CCCC6)cc5)ccc4o3)CC2)cc1 [Compound 6-68, N-(1-(4-cyanobenzyl)piperidin-4-yl)-5-(4-(pyrrolidin-1-yl)benzamido)benzofuran-2-carboxamide] the EC50 was 100 to 1000 nM.

With N#Cc1ccc(CN2CCC(NC(=O)c3cc4cc(NC(=O)[C@H]5CC[C@@H](Oc6ccc(C#N)cc6)CC5)ccc4o3)CC2)cc1 [Compound 6-69, N-(1-(4-cyanobenzyl)piperidin-4-yl)-5-((1s,4s)-4-(4-cyanophenoxy)cyclohexanecarboxamido) benzofuran-2-carboxamide] the EC50 was < 100 nM.

For N#Cc1ccc(CN2CCC(NC(=O)c3cc4cc(NC(=O)C5CCN(c6ccc(C#N)cn6)CC5)ccc4o3)CC2)cc1 [Compound 6-70, N-(2-(1-(4-cyanobenzyl)piperidin-4-ylcarbamoyl)benzofuran-5-yl)-1-(5-cyanopyridin-2-yl)piperidine-4-carboxamide], the EC50 was < 100 nM.

Molecule N#Cc1ccc(CN2CCC(NC(=O)c3cc4cc(NC(=O)c5ccc(Oc6ccc(C#N)cn6)cc5)ccc4o3)CC2)cc1 [Compound 6-71, N-(1-(4-cyanobenzyl)piperidin-4-yl)-5-(4-(5-cyanopyridin-2-yloxy)benzamido)benzofuran-2-carboxamide] has an EC50 of 100 to 1000 nM.

N#Cc1ccc(CN2CCC(NC(=O)c3cc4cc(NC(=O)c5cnn(Cc6ccc(C(F)(F)F)cc6)c5)ccc4o3)CC2)cc1 [Compound 6-72, N-(2-(1-(4-cyanobenzyl)piperidin-4-ylcarbamoyl)benzofuran-5-yl)-1-(4-(trifluoromethyl)benzyl)-1H-pyrazole-4-carboxamide] gave an EC50 of 1000 to 10000 nM.

Molecule N#Cc1ccc(CN2CCC(NC(=O)c3cc4cc(NC(=O)c5cnn(Cc6ccc(C#N)cc6)c5)ccc4o3)CC2)cc1 [Compound 6-73, 1-(4-cyanobenzyl)-N-(2-(1-(4-cyanobenzyl)piperidin-4-ylcarbamoyl)benzofuran-5-yl)-1H-pyrazole-4-carboxamide] has an EC50 of 1000 to 10000 nM.

Molecule N#Cc1ccc(CN2CCC(NC(=O)c3cc4cc(NC(=O)C5CN(c6ccc(C#N)cc6)C5)ccc4o3)CC2)cc1 [Compound 6-74, N-(2-(1-(4-cyanobenzyl)piperidin-4-ylcarbamoyl)benzofuran-5-yl)-1-(4-cyanophenyl)azetidine-3-carboxamide] has an EC50 of 100 to 1000 nM.

In the case of N#Cc1ccc(CN2CCC(NC(=O)c3cc4cc(NC(=O)C5CCN(c6ccc(C#N)cc6)CC5)ccc4o3)CC2)cc1 [Compound 6-76, N-(2-(1-(4-cyanobenzyl)piperidin-4-ylcarbamoyl)benzofuran-5-yl)-1-(4-cyanophenyl)piperidine-4-carboxamide], the EC50 is reported as < 100 nM.
